This test is described as follows: activity of peptide, test not specified.

As to “CYS-THR-THR-ASN-TYR-THR-CYS (CTTNYTC; printed: CYS-THR-THR-ASN-TYR-THR-CYS) [seven amino acid peptide]”, the outcome was active.

The record behind these values is patent EP0249390A2, “Synthetic peptides related to the HIV glycoprotein gp 120” (Pert, Candace B., priority 1986, dated 1987).
